Experimental data published in paper PMC9571170, “Exploring Active Ingredients, Beneficial Effects, and Potential Mechanism of Allium tenuissimum L. Flower for Treating T2DM Mice Based on Network Pharmacology and Gut Microbiota” (Nutrients, 2022).

How the values were obtained:
[1] = molecular target: α−Glucosidase (from yeast); assay: In vitro α−glucosidase inhibitory activity assay (PNPG substrate); format: biochemical; conditions: n=3; acarbose positive control
Method: The α−glucosidase inhibitory activity assay method of A. tenuissimum flower flavonoids was slightly modified based on previous studies. A 96−well plate was used for preparing the mixture consisting of 0.1 M PBS (pH 6.8), 1.0 mg/mL sample solution, and 2 U/mL α−glucosidase, which were incubated at 37 °C for 10 min. 20 μL PNPG solution (2.5 Mm, dissolved in PBS) was added to each well to start the reaction and incubated at 37 °C. Twenty minutes later, 80 μL Na2CO3 solution (0.2 mol/L) was added to each well to terminate the reaction. The absorbance was measured at 405 nm by Tecan Infinite M200 PRO (Tecan Trading Co. Ltd., Shanghai, China). […] The inhibitory rate was calculated by the absorbance formula below:Inhibition% = [1 − (Aa − Ab) / Ac] × 100% a. 20 μL PNPG + 80 μL Na2CO3 + 20 μL PBS + 20 μL sample + 20 μL enzyme; b. 20 μL PNPG + 80 μL Na2CO3 + 40 μL PBS +20 μL sample; c. 20 μL PNPG + 80 μL Na2CO3 + 40 μL PBS + 20 μL enzyme.

[2] = parameters: method as in TCMSP database; conditions: filter condition; ref TCMSP database; cited from earlier work

| IC50 [1] [µM] | Compound | Oral bioavailability (OB) [2] [%] |
| --- | --- | --- |
| 289 ± 14 | CC(=O)OCC1OC(OC2C(C)OC(Oc3c(-c4ccc(O)cc4)oc4cc(O)cc(O)c4c3=O)C(O)C2O)C(O)C(O)C1O (centres unmarked) [AF−1, multiflorin A] | – |
| – | O=c1c(O)c(-c2ccc(O)cc2)oc2cc(O)cc(O)c12 [AF−8, kaempferol] | ≥ 30 |
| 176 ± 6 | CC(C)=CCc1cc(-c2oc3cc(O)cc(O)c3c(=O)c2O)ccc1O [AF−11, isolicoflavonol] | ≥ 30 |
| 506 ± 1 | COc1ccc(-c2oc3cc(OC)cc(O)c3c(=O)c2OC2OC(CO)C(O)C(O)C2O)cc1 (centres unmarked) [AF−15, kaempferol−4’,7−dimethyl−3−O−glucoside] | – |
| – | CN1[C@H]2C[C@H](OC(=O)[C@H](CO)c3ccccc3)C[C@@H]1[C@@H](O)C2 [AF−23, anisodamine] | ≥ 30 |
| 300 ± 23 | O=C(C=Cc1ccc(O)cc1)OCC1OC(Oc2c(-c3ccc(O)cc3)oc3cc(O)cc(O)c3c2=O)C(O)C(O)C1OC(=O)C=Cc1ccc(O)cc1 (stereo not drawn) [AF−33, kaempferol−3−O−β−D−4′′,6′′− di−(E)−p−coumaroyl glucoside] | – |
| 335 ± 1 | O=c1c(OC2OC(COC3OC(CO)C(O)C(O)C3OC3OC(CO)C(O)C(O)C3O)C(O)C(O)C2O)c(-c2ccc(O)cc2)oc2cc(O)cc(O)c12 (stereo not drawn) [AF−34, kaempferol 3−O−β−D−glucopyranosyl−(1→2) −β−D−glucopyranosyl−(1→6)−β−D−glucopyranodide] | – |
| 230 ± 34 | COc1ccc(-c2oc3cc(O)cc(O)c3c(=O)c2O)cc1CC=C(C)C [AF−38, macasiamenol B] | – |
| 282 ± 3 | COc1ccc(-c2oc3cc(O)cc(O)c3c(=O)c2OC2OC(CO)C(O)C(O)C2O)cc1O (centres unmarked) [AF−40, tamarixin] | – |

| Compound | IC50 [1] [µM] | Oral bioavailability (OB) [2] [%] |
| --- | --- | --- |
| COc1cc(-c2oc3cc(O)cc(O)c3c(=O)c2OC2OC(COC(C)=O)C(O)C(O)C2O)ccc1O (stereo not drawn) [AF−36, isorhamnetin 3−O−β−D−(6−acetyl)−galactopyranoside] | 326 ± 13 | – |
